Several values for one entry are separate records, joined by “and”; a condition that tells them apart may be missing. Equal entries are not always repeated. Where two headings read alike, the source gives them in different places. Blank lines part the entries; values can stand above or below the compound they belong to.
Legend:
tyrosinase [1] = biological target: T1, tyrosinase (Agaricus bisporus, UniProt C7FF04); test: Tyrosinase assay (L-tyrosine substrate, product detected at 475 nm); format: biochemical, mushroom; conditions: for inhibition at 100 µM: read-out: Inhibitory activity on tyrosinase at 100 μM (%); for Binding mode: Lineweaver–Burk and Dixon plots; for Ki: based on Dixon plots
T1 construct: purchased Sigma-Aldrich T3824
T1 sequence (C7FF04 1-392 limits assumed): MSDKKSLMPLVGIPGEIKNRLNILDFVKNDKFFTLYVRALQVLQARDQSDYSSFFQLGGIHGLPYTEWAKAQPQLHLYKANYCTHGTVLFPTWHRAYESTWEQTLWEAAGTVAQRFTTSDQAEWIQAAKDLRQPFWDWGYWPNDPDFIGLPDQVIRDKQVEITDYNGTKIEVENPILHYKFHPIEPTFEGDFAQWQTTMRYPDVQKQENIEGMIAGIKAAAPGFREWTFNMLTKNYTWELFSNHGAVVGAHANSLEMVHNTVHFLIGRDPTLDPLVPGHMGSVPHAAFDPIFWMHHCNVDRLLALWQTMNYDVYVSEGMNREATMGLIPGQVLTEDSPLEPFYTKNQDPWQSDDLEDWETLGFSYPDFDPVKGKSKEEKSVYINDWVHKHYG
Protocol: Phlorotannins of E. cava and E. stolonifera were reported to have the inhibitory activity on mushroom tyrosinase. […] This study evaluated the ability of the isolated phlorotannins 1–7 to suppress the catalytic reaction of tyrosinase over time, in the absence or presence of inhibitor. […]. A commercial tyrosinase inhibitor was used as a positive control (kojic acid; […]. To identify potent inhibitors, the inhibitory activity of all of the isolated compounds at 100 μM was tested against tyrosinase in vitro (Table 1). Of these, compounds 2–5 were confirmed to have inhibitory activity exceeding 50%. Serial dilutions were used to calculate the IC50 values. The tyrosinase inhibitory activity increased in a dose-dependent fashion (Figure 2A). […]. To gain insight into the interaction of the enzyme with phlorotannins, as tyrosinase inhibitors, the products of the catalytic reaction were determined by ultraviolet-visible photometry after the inhibitor was added to the enzyme solution. The IC50 values of compounds 3 and 5 increased linearly with [S]/Km (Figure 2B). […]. Phlorotannins from seaweeds have been used to develop the non-competitive tyrosinase inhibitors 7-phloroeckol, dieckol, and phlorofucofuroeckol A, and the competitive inhibitors phloroglucinol and eckstolonol.
To evaluate inhibitory activity on tyrosinase with isolated compounds, 130 μL of tyrosinase in […] phosphate buffer (pH 6.8) was divided in 96 well plates. 20 μL of compound concentrations ranging from 1–0.015 mM was added. 50 μL of 1.5 mM L-tyrosine in phosphate buffer was diluted into the mixture for calculating the inhibitory activity. 50 μL of 10–0.62 mM L-tyrosine in buffer was added to analyze initial velocity (v0). After starting their reaction for 20 min, an amount of the product was detected at UV–vis 475 nm. […]

tyrosinase [2] = biological target: T1, tyrosinase; conditions: cited from earlier work; for Mode of tyrosinase inhibition (literature): phlorotannins from seaweeds
tyrosinase [3] = biological target: T1, tyrosinase; test: Slow-binding inhibition analysis (progress curves); format: biochemical, mushroom; conditions: for Ki: apparent Ki from slow-binding analysis, read-out: kapp i; for Slow-binding mechanism: replot of kobs vs [I]
Protocol: To confirm time-dependent inhibition by the potential inhibitors (compounds 3 and 5), the substrate was added into a mixture of ligand (3.1 μM) that was preincubated with tyrosinase. Over time, their inhibitory activities increased. To calculate the slow-binding parameters (k3, k4, k5, k6, and kapp i), the progress curves were analyzed using equation (2), with increasing concentrations of compounds 3 and 5 (Figure 3C,D); a replot of kobs was obtained as [I] (Figure 3E,F). The replot of compound 3 was a straight line that fit equation (3). […] The two strongest inhibitors had different slow-binding mechanisms. Inhibitor 5, which has a higher molecular weight, induced a new conformational state of the enzyme.
The progress curves were calculated to Equation (2) by Morrison according to time course for 420 s. [P] = vst + [(v0 − vs)/kobs(1 − e^−kobst)](2) where t is time, [P] is product intensity, v0 and vs are the initial and steady-state reaction velocities, and kobs is the apparent first-order rate […]. kobs = k4 + k3[I](3) (4) Kiapp=k4/k3
This is a linear Equation (3) for slow-binding mechanism A. Kiapp is the apparent value of an inhibitor by Equation (4). Where [I] is inhibitor concentration. (5) kobs=k6+[(k5×[I])/(Kiapp+[I])
Equation (5) of hyperbola is for the calculation of rate constant in slow-binding mechanism B.

inhibition at 100 µM (tyrosinase [1]; compound at 100 μM, triplicate): 41.2 ± 4.3%
Compound: Oc1cc(O)cc(Oc2c(O)cc(O)c3c2Oc2c(cc(O)c(-c4c(O)cc(O)c5c4Oc4c(O)cc(O)c(Oc6cc(O)cc(O)c6)c4O5)c2O)O3)c1 [Compound 6, 6,8′-bieckol]

Compound: Oc1cc(O)cc(Oc2c(O)cc(O)c3c2Oc2c(cc(O)c(-c4c(O)cc5c(c4O)Oc4c(Oc6cc(O)cc(O)c6)c(O)cc(O)c4O5)c2O)O3)c1 [Compound 7, 8,8′-bieckol]
inhibition at 100 µM (tyrosinase [1]): 43.3 ± 1.5%

Compound: triphlorethol A [Compound 1]
Inhibitory activity on tyrosinase at 100 μM (%) (tyrosinase [1]; compound at 100 μM, triplicate): 26.7 ± 1.0%

Compound: Oc1cc(O)cc(Oc2c(O)cc(O)c3c2Oc2c(O)cc(Oc4c(O)cc(Oc5c(O)cc(O)c6c5Oc5c(O)cc(O)cc5O6)cc4O)cc2O3)c1 [dieckol]
Mode of tyrosinase inhibition (literature) (tyrosinase [2]): non-competitive

Compound: Oc1cc(O)cc(Oc2c(O)cc(O)c3c2Oc2c(O)cc(O)cc2O3)c1 [Compound 2, eckol]
IC50 (tyrosinase [1]; IC50, triplicate): 13.5 ± 0.1 µM | inhibition at 100 µM (tyrosinase [1]; compound at 100 μM, triplicate): 86 ± 4.7% | Binding mode (reported) (tyrosinase [2]): Reported as non-competitive ^d

Compound: Oc1cc(O)cc(O)c1 [phloroglucinol]
Mode of tyrosinase inhibition (literature) (tyrosinase [2]): competitive

Binding mode (tyrosinase [1]): Competitive | Ki (tyrosinase [1]): 8.2 µM | inhibition at 100 µM (tyrosinase [1]; compound at 100 μM, triplicate): 94.7 ± 1.4% | IC50 (tyrosinase [1]; triplicate, read-out: IC50): < 10 µM and 7 µM | Ki (tyrosinase [3]): 6.5 µM | Slow-binding mechanism (tyrosinase [3]): a single-step binding mechanism | K3 (tyrosinase [3]; slow-binding mechanism A): 0.0002 mM/s | k4 (tyrosinase [3]; slow-binding mechanism A): 0.0013 s⁻¹
Compound: Oc1cc(O)cc(Oc2c(Oc3c(O)cc(O)cc3O)cc(O)c3c2Oc2c(O)cc(O)cc2O3)c1 [Compound 3, 2-phloroeckol]

Compound: eckstolonol
Mode of tyrosinase inhibition (literature) (tyrosinase [2]): competitive

Binding mode (tyrosinase [1]): Competitive | Ki (tyrosinase [1]): 5.8 µM | inhibition at 100 µM (tyrosinase [1]; compound at 100 μM, triplicate): 86.9 ± 0.9% | IC50 (tyrosinase [1]; triplicate, read-out: IC50): < 10 µM and 8.8 µM | Ki (tyrosinase [3]): 4.4 µM | Slow-binding mechanism (tyrosinase [3]): a two-step binding mechanism | K5 (tyrosinase [3]; slow-binding mechanism B): 0.0047 s⁻¹ | K6 (tyrosinase [3]; slow-binding mechanism B): 0.0003 s⁻¹
Compound: Oc1cc(O)cc(Oc2c(O)cc(O)c3c2Oc2c(O)cc(O)c(-c4c(O)cc(O)c5c4Oc4c(O)cc(Oc6c(O)cc(O)cc6O)c(Oc6cc(O)cc(O)c6)c4O5)c2O3)c1 [Compound 5, 2-O-(2,4,6-trihydroxyphenyl)-6,6′-bieckol]

Compound: Oc1cc(O)cc(Oc2c(O)cc(O)c3c2Oc2c(O)cc(Oc4c(O)cc(O)cc4O)cc2O3)c1 [7-phloroeckol]
Mode of tyrosinase inhibition (literature) (tyrosinase [2]): non-competitive

Compound: Oc1cc(O)cc(Oc2c(O)cc(O)c3c2Oc2c(O)cc4oc5c(Oc6cc(O)cc(O)c6)c(O)cc(O)c5c4c2O3)c1 [Compound 4, phlorofucofuroeckol A]
IC50 (tyrosinase [1]; IC50, triplicate): 66.4 ± 0.1 µM | inhibition at 100 µM (tyrosinase [1]; compound at 100 μM, triplicate): 57.1 ± 3.3% | Mode of tyrosinase inhibition (literature) (tyrosinase [2]): non-competitive

— paper PMC6627058, “Slow-Binding Inhibition of Tyrosinase by Ecklonia cava Phlorotannins” (Marine Drugs, 2019)
